The source of these data is patent US20210269504A1, “PROTEIN-BASED MICELLES FOR THE DELIVERY OF HYDROPHOBIC ACTIVE COMPOUNDS” (priority 2018, published 2021).

A short description of the data set: Loading of 2Yx2A micelles with pyraclostrobin (A280 and HPLC quantification). The format is physicochemical. The protocol:
Pyraclostrobin is a highly water-insoluble organic compound that is also a potent fungicide. […] To determine if pyraclostrobin could be taken up into 2Yx2A micelles, pyraclostrobin was added until it saturated a solution of 100 μL of 11 μM (A280: 0.361) 2Yx2A, evidenced by yellow particulates. The solution was then centrifuged and the supernatant was removed and then placed in a fresh tube and centrifuged again. Supernatant removal and centrifugation were repeated 3 times to remove any insoluble pyraclostrobin that has not partitioned into the micelle interior. The solution was then measured with a nanodrop to determine its absorbance at 280 nm resulting in an A280 of 0.502 (+0.141 mAU). Given the pyrene extinction coefficient of 24,000 at A275, this increase in absorbance corresponds to the presence of 5.8 μM pyrene. Similarly, the same sample can be analyzed for pyraclostrobin content via HPLC using a calibration curved developed using known pyrene concentrations in acetonitrile (FIG. 18A). For HPLC analysis the protein-pyraclostrobin solution is diluted to ½ of its volume by pyrene to break apart the micelles. Then a known volume is injected onto the HPLC (FIG. 18B). Based on the area of the pyrene peak and volume injected the number of moles and thus the concentration of pyraclostrobin can be determined. Using this method, 7.37 μM pyraclostrobin is encapsulated in 11 μM of protein.
Instead of directly adding pyraclostrobin to a solution of 2Yx2A micelles an alternative method was used to achieve higher loading efficiency. This method involved the co-resuspension of lyophilized protein and pyraclostrobin in THF which is then slowly diluted with buffer. The solution was then centrifuged and the supernatant was removed and then placed in a fresh tube and centrifuged again. Supernatant removal and centrifugation were repeated 3 times to remove any insoluble pyraclostrobin that has not partitioned into the micelle interior. The sample was then lyophilized to remove all solvent and then resuspended in milliQ water. Although no visible precipitation was observed, the sample was centrifuged to remove any unincorporated pyraclostrobin. For HPLC analysis the protein-pyraclostrobin solution is diluted to ½ of its volume by pyrene to break apart the micelles. Then a known volume is injected onto the HPLC. Based on the area of the pyrene peak and volume injected the number of moles and thus the concentration of pyraclostrobin can be determined.

For `COC(=O)N(OC)c1ccccc1COc1ccn(-c2ccc(Cl)cc2)n1` [pyraclostrobin], where the note is “direct addition to 11 μM 2Yx2A”, the “Concentration encapsulated in micelles (HPLC)” value amounted to 7.37 µM. The “Amount injected on the HPLC” value reads like this: (resuspended in water, without 2Yx2A) 0.03 nmol; (resuspended with 2Yx2A (THF co-resuspension, 100 mM PB pH 5.7)) 0.63 nmol.

As to `c1cc2ccc3cccc4ccc(c1)c2c34` [pyrene], the “Concentration present from increase in A280” value (direct addition to 11 μM 2Yx2A, +0.141 absorbance, extinction coefficient 24,000) worked out at 5.8 µM.
